Assay results: patent publication US9833520B2, “Labeled, non-peptidic, multivalent integrin antagonist compounds; methods for synthesis and uses thereof” (The Methodist Hospital Research Institute, priority 2011, dated 2017)
Entries after “also recorded” stand apart in the source; their conditions may differ. Like-named read-outs stand apart in the source and are kept apart here.

Key:
purified human αvβ3 = target: T1, purified human αvβ3 (Homo sapiens, UniProt P05106+P06756); assay: ELISA: competitive inhibition of biotinylated vitronectin binding to immobilized purified integrin αvβ3; conditions: for higher binding affinity as compared to monomer 1 (IA): compared to IA 1
T1 construct: purchased Chemicon International, Temecula, Calif., USA
Protocol: In vitro Binding Assay. […] Purified integrin αvβ3 protein (Chemicon International, Temecula, Calif., USA) was applied to 96-well polystyrene microtiter plates at 0.1 μg/well. After overnight incubation at 4° C., the plates were washed, and then blocked with milk solution (KPL, Inc. Gaithersburg, Md., USA) at room temperature for 2 hr. The blocking buffer was removed, and the plates were inoculated in quadruplicate with bivalent IAs with a typical starting concentration of 125 nM. Serial dilutions were prepared in the 96-well plates using multichannel pipettes. Biotinylated vitronectin solution (0.1 μg/well) was added to each well as a standard competitor. The plates were incubated at room temperature for 3 h, washed, and the bound vitronectin was detected using NeutrAvidin-HRP conjugate at 0.01 μg/well (Pierce, Rockford, Ill., USA) and LumiGlo® chemiluminescent substrate system (KPL, Inc.). The luminescence was read using a FLUOstar™ OPTIMA Microplate Reader (Durham, N.C., USA). […] (Peptides International, Inc., Louisville, Ky., USA) was also tested using the same method as described above.
Briefly, purified integrin αvβ3 protein (Chemicon International, Temecula, Calif., USA) was applied to 96-well polystyrene microtiter plates for overnight incubation at 4° C. The plates were washed and then blocked with milk solution (KPL, Inc., Gaithersburg, Md., USA) and the plates were inoculated in quadruplicate with multivalent IAs at different concentrations. Biotinylated vitronectin solution was added to each well as a standard competitor. The plates were incubated at room temperature, washed, and the bound vitronectin detected using NeutrAvidin-HRP® conjugate (Pierce, Rockford, Ill., USA) and LumiGlo® chemiluminescent substrate system (KPL, Inc., Gaithersburg, Md., USA). The luminescence was read using a FLUOstar® OPTIMA Microplate Reader (Durham, N.C., USA).
In vitro Binding Affinity Assay. Purified integrin αvβ3 protein (Chemicon International, Temecula, Calif., USA) was applied to 96-well polystyrene microtiter plates at 1 μg/well. After overnight incubation at 4° C., the plates were washed and then blocked with milk solution (KPL, Inc., Gaithersburg, Md., USA) at room temperature for 2 hr. The blocking buffer was removed, and the plates were inoculated in quadruplicate with bivalent IAs with a typical starting concentration of 125 nM. Serial dilutions were prepared in the 96-well plates using multichannel pipettes. Biotinylated vitronectin solution (0.1 μg/well) was added to each well as a standard competitor.
The plates were incubated at room temperature for 3 hr, washed, and the bound vitronectin was detected using NeutrAvidin-HRP conjugate at 0.01 μg/well (Pierce, Rockford, Ill., USA) and LumiGlo® chemiluminescent substrate system (KPL, Inc.). The luminescence was read using a FLUOstar OPTIMA Microplate Reader (Durham, N.C., USA). […] It measured competitive binding of the integrin antagonist and biotinylated human vitronectin for the immobilized receptor αvβ3.

[1] = test system: U-87 MG (ATCC HTB-14) glioblastoma cells over-expressing integrin αvβ3; assay: Fluorescence microscopy probe binding assay in U-87 cells; type: cell-based, human; conditions: 200 nM, 37° C., 45 min, confocal microscopy
Protocol: Fluorescence Microscopy Studies. […] For fluorescence microscopy studies, 1×10^4 U-87 cells were cultured on 35 mm MatTek glass bottom culture dishes. After 24 hr, cells were washed with PBS and then incubated with bivalent-IA-Cy5.5 (200 nM) at 37° C. for 45 min. Integrin specificity of the probe binding was verified by incubating U-87 cells with and without a blocking dose of the non-fluorescent bivalent IA (20 μmol/L). After the incubation period, the cells were washed three times with ice-cold PBS. The fluorescence signal of the cells was recorded using FluoView® 1000 Laser Scanning Confocal Microscope (Olympus, Center Valley, Pa., USA) under a 40× oil-immersion objective, with laser excitation at 675 nm (Cy5.5). A differential interference contrast image was also recorded so that the origin of fluorescent signals could be confirmed.

U-87 xenograft tumors = assay: In vivo and ex vivo NIR fluorescence imaging of U-87 xenograft tumor-bearing mice
Protocol: U-87 MG Xenograft Model, Animal procedures were performed according to approved protocols. Female athymic nude mice (nu/nu), obtained from Charles River Laboratories, Inc. (Cambridge, Mass., USA) at 4-6 weeks of age, were injected subcutaneously in the right rear thigh with 1×10^7 U-87 MG cells suspended in 100 μL of phosphate-buffered saline (PBS). The cancer cells were harvested from sub-confluent cultures with 0.25% trypsin. Trypsinization was stopped with DMEM containing 10% FBS, after which the cells were washed once in serum-free medium and resuspended in PBS. Trypan blue exclusion was performed to ensure >90% cell viability. The tumor bearing mice were subjected to in vivo imaging studies when the tumors reached 0.4-0.6 cm in diameter.
In vivo Fluorescence Imaging of Tumors. ˜3×10^6 U-87 cells were implanted bilaterally in the posterior flanks of immunocompromised (nu/nu) mice and grown to ˜4 to 6 mm in diameter. Imaging was carried out in groups of five mice. After palpable masses were detected, animals were manually restrained and imaging probes were intravenously administered (lateral tail vein) using a 30-Ga needle via aseptic technique. Free Cy5.5 was prepared by dissolving the same Cy5.5NHS ester used for labeling the bivalent IA (GE Healthcare, Piscatway, N.J., USA) in phosphate buffered saline (PBS), pH 7.4 overnight at 4° C. Stock concentration of free Cy5.5 was measured optically using the molar extinction coefficient of 250000M-1 cm-1 using a UV-visible spectrophotometer at the maximum absorbance wavelength (675 nm) as recommended by the manufacturer. The bivalent-IA-Cy5.5 was weighed and confirmed by spectrophotometric measurement. Appropriate dilutions of each probe were made in PBS, pH 7.4, and each was filter sterilized (0.2-μm) immediately prior to use. All animals weighed between 18 and 20 g, and each received 10 nmol of imaging probe (in a total volume of 100 μL). Fluorescence imaging was performed with a small animal-dedicated optical imaging system (Xenogen/Caliper IVIS-200, Mountain View, Calif., USA) under continuous 1.5-2.0% isoflurane delivered through the integrated anesthesia nosecone system. At 2-, 4-, 7-, 24-, and 48-hrs' post-injection, images were acquired with the surface of the tissue of interest (tumor) approximating a perpendicular viewing angle relative to the camera line of sight; this viewing angle was also used for normal tissue selection.
For determining tumor contrast, mean fluorescence intensities of the tumor area (T) defined as radiance (photons/sec/cm2/sr) at the right rear leg of the animal and of the area (N) at the right flank (normal tissue) were calculated by region-of-interest (ROI) analysis using the corresponding photograph of each image acquisition dataset to identify the tumor region. Pre-injection imaging was also performed to determine baseline autofluorescence. For competitive inhibition studies, mice (n=3) were co-injected with 500 nmol bivalent IA and 10 nmol of imaging probe (bivalent-IA-Cy5.5) following the same procedure described above. Free Cy5.5 studies were performed in the same manner following the intravenous injection of 10 nmol. For ex vivo biodistribution imaging, two tumor-bearing mice were imaged 24 hrs post injection of bivalent-IA-Cy5.5 and thereafter euthanized per IACUC protocol (CO2 and cervical dislocation). Tumor and major internal organs (heart, lung, liver, spleen, gastrointestinal tract, and kidneys) were harvested, weighed, and imaged against a black paper background. All image acquisition parameters were as follows: epi-illumination; Cy5.5 Em/Ex; Bin: (HR)4, FOV: 12.9; f2; 0.2 sec.

[2] = Example 2, PEG-linked ligands, averages of at least three determinations, read-out: In vitro EL1SA IC50

O=C(NCCS(=O)(=O)N[C@@H](CNC(=O)c1ccc(OCCNC2=NCCCN2)cc1)C(=O)O)OCCOCCOCCOC(=O)NCCS(=O)(=O)N[C@@H](CNC(=O)c1ccc(OCCNC2=NCCCN2)cc1)C(=O)O [Compound 3]
IC50 (purified human αvβ3; [2]): 0.16 nM

O=C(NCCS(=O)(=O)N[C@@H](CNC(=O)c1ccc(OCCNC2=NCCCN2)cc1)C(=O)O)OCCOCCOCCOCCOC(=O)NCCS(=O)(=O)N[C@@H](CNC(=O)c1ccc(OCCNC2=NCCCN2)cc1)C(=O)O [Compound 4]
IC50 (purified human αvβ3; [2]): 0.16 nM

O=C(NCCS(=O)(=O)N[C@@H](CNC(=O)c1ccc(OCCNC2=NCCCN2)cc1)C(=O)O)OCCOCCOCCOCCOCCOCCOCCOCCOC(=O)NCCS(=O)(=O)N[C@@H](CNC(=O)c1ccc(OCCNC2=NCCCN2)cc1)C(=O)O [Compound 5]
IC50 (purified human αvβ3; [2]): 0.16 nM

CC(C)(CNC(=O)OCCOCCOCCOC(=O)NCC(C)(C)COC(=O)NCCS(=O)(=O)N[C@@H](CNC(=O)c1ccc(OCCNC2=NCCCN2)cc1)C(=O)O)COC(=O)NCCS(=O)(=O)N[C@@H](CNC(=O)c1ccc(OCCNC2=NCCCN2)cc1)C(=O)O [Compound 6]
IC50 (purified human αvβ3; [2]): 0.09 nM | higher affinity as compared to the corresponding monomer 2 (purified human αvβ3; compared to IAC 2): ~23 fold

CC(C)(CNC(=O)OCCOCCOCCOCCOC(=O)NCC(C)(C)COC(=O)NCCS(=O)(=O)N[C@@H](CNC(=O)c1ccc(OCCNC2=NCCCN2)cc1)C(=O)O)COC(=O)NCCS(=O)(=O)N[C@@H](CNC(=O)c1ccc(OCCNC2=NCCCN2)cc1)C(=O)O [Compound 7]
IC50 (purified human αvβ3; [2]): 0.11 nM

CC(C)(CNC(=O)OCCOCCOCCOCCOCCOCCOCCOCCOC(=O)NCC(C)(C)COC(=O)NCCS(=O)(=O)NC(CNC(=O)c1ccc(OCCNC2=NCCCN2)cc1)C(=O)O)COC(=O)NCCS(=O)(=O)NC(CNC(=O)c1ccc(OCCNC2=NCCCN2)cc1)C(=O)O (stereo not drawn) [Compound 8]
IC50 (purified human αvβ3; [2]): 0.32 nM

CC(C)(CN)COC(=O)NCCS(=O)(=O)N[C@@H](CNC(=O)c1ccc(OCCNC2=NCCCN2)cc1)C(=O)O [IAC 2]
IC50 (purified human αvβ3; [2]): 2.07 nM | higher binding affinity as compared to monomer 1 (IA) (purified human αvβ3): about 10 fold | higher binding affinity as compared to monomer 1 (IA) (purified human αvβ3; listed as 2): 10 fold

CC[N+]1=C(/C=C/C=C/C=C2/N(CCCCCC(=O)NC(CCCCCC(=O)NCCS(=O)(=O)N[C@@H](CNC(=O)c3ccc(OCCNC4=NCCCN4)cc3)C(=O)O)C(=O)NCCS(=O)(=O)N[C@@H](CNC(=O)c3ccc(OCCNC4=NCCCN4)cc3)C(=O)O)c3ccc4c(S(=O)(=O)O)cc(S(=O)(=O)O)cc4c3C2(C)C)C(C)(C)c2c1ccc1c(S(=O)(=O)[O-])cc(S(=O)(=O)O)cc21 (stereo partly drawn) [bivalent-IA-Cy5.5]
IC50 (purified human αvβ3; Example 1 bivalent IA study, FIG. 4, read-out: IC50 of vitronectin binding to αvβ3 (ELISA)): 0.13 ± 0.02 nM | endocytosis / binding of probe in U-87 cells [1]: endocytosis of the imaging probes; also recorded: integrin-mediated endocytosis | endocytosis / binding of probe in U-87 cells ([1]; listed as Bivalent-IA-Cy5.5 conjugate): Receptor-mediated endocytosis was observed | endocytosis / binding of probe in U-87 cells ([1]; listed as bivalent-IA-Cy5.5 conjugate): integrin-mediated endocytosis | tumor fluorescence signal / accumulation (U-87 xenograft tumors; 10 nmol i.v.): increased signal in tumor sites at 7, 24, and 48 hrs; also recorded: modest accumulation at the tumor site | tumor-to-normal tissue (T/N) fluorescence ratio, average maximum (U-87 xenograft tumors; 10 nmol i.v., plateau at 24 hr, n=5): ~1.84 | ex vivo signal per mass of tissue (biodistribution) (U-87 xenograft tumors; 24 hrs post-injection, two animals): The highest signal per mass of tissue was observed for the tumor | blood-pool / circulation clearance rate (U-87 xenograft tumors; inferred from fluorescence): relatively slow blood-pool clearance rate; also recorded: relatively slow clearance of the probe from the circulation | route of clearance (U-87 xenograft tumors; inferred from kidney fluorescence signal, 24 hrs): mainly renal clearance | hepatic metabolism (U-87 xenograft tumors; inferred from minimal liver signal, 24 hrs): low hepatic metabolism

CCN1\C(=C/C=C/C=C/C2=[N+](CCCCCC(=O)O)c3ccc4c(S(=O)(=O)O)cc(S(=O)(=O)O)cc4c3C2(C)C)C(C)(C)c2c1ccc1c(S(=O)(=O)[O-])cc(S(=O)(=O)O)cc21 [free Cy5.5, reference compound]
tumor fluorescence signal / accumulation (U-87 xenograft tumors; 10 nmol i.v.): slightly higher than the background but is lower than that achieved with the bivalent-IA-Cy5.5
